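Compound exposure: 48 hours, 5 concentrations, 96-well plates. The concentration for 50% growth inhibition is given as GI50. TGI denotes the concentration required for complete inhibition of growth.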
What was measured:
Assay in all cases: DTP human tumour cell line panel, 48 h
786-0 renal = tested on: 786-0 renal
A498 renal = tested on: A498 renal
A549 NSCLC = tested on: A549 NSCLC
ACHN renal = tested on: ACHN renal
BT-549 breast = tested on: BT-549 breast
CAKI-1 renal = tested on: CAKI-1 renal
CCRF-CEM leukemia = tested on: CCRF-CEM leukemia
COLO 205 colon = tested on: COLO 205 colon
DU-145 prostate = tested on: DU-145 prostate
EKVX NSCLC = tested on: EKVX NSCLC
HCC-2998 colon = tested on: HCC-2998 colon
HCT-116 colon = tested on: HCT-116 colon
HCT-15 colon = tested on: HCT-15 colon
HL-60(TB) leukemia = tested on: HL-60(TB) leukemia
HOP-62 NSCLC = tested on: HOP-62 NSCLC
HOP-92 NSCLC = tested on: HOP-92 NSCLC
HS 578T breast = tested on: HS 578T breast
HT29 colon = tested on: HT29 colon
IGROV1 ovarian = tested on: IGROV1 ovarian
K-562 leukemia = tested on: K-562 leukemia
KM12 colon = tested on: KM12 colon
LOX IMVI melanoma = tested on: LOX IMVI melanoma
M14 melanoma = tested on: M14 melanoma
MALME-3M melanoma = tested on: MALME-3M melanoma
MCF7 breast = tested on: MCF7 breast
MDA-MB-231 breast = tested on: MDA-MB-231 breast
MDA-MB-435 = tested on: MDA-MB-435
MOLT-4 leukemia = tested on: MOLT-4 leukemia
NCI-H226 lung = tested on: NCI-H226 lung
NCI-H23 lung = tested on: NCI-H23 lung
NCI-H460 lung = tested on: NCI-H460 lung
NCI-H522 lung = tested on: NCI-H522 lung
NCI/ADR-RES ovarian = tested on: NCI/ADR-RES ovarian
OVCAR-3 ovarian = tested on: OVCAR-3 ovarian
OVCAR-4 ovarian = tested on: OVCAR-4 ovarian
OVCAR-5 ovarian = tested on: OVCAR-5 ovarian
OVCAR-8 ovarian = tested on: OVCAR-8 ovarian
PC-3 prostate = tested on: PC-3 prostate
RPMI-8226 leukemia = tested on: RPMI-8226 leukemia
RXF 393 renal = tested on: RXF 393 renal
SF-268 CNS = tested on: SF-268 CNS
SF-295 CNS = tested on: SF-295 CNS
SF-539 CNS = tested on: SF-539 CNS
SK-MEL-2 melanoma = tested on: SK-MEL-2 melanoma
SK-MEL-28 melanoma = tested on: SK-MEL-28 melanoma
SK-MEL-5 melanoma = tested on: SK-MEL-5 melanoma
SK-OV-3 ovarian = tested on: SK-OV-3 ovarian
SN12C renal = tested on: SN12C renal
SNB-19 CNS = tested on: SNB-19 CNS
SNB-75 CNS = tested on: SNB-75 CNS
SR leukemia = tested on: SR leukemia
SW-620 colon = tested on: SW-620 colon
T-47D breast = tested on: T-47D breast
TK-10 renal = tested on: TK-10 renal
U251 CNS = tested on: U251 CNS
UACC-257 melanoma = tested on: UACC-257 melanoma
UACC-62 melanoma = tested on: UACC-62 melanoma
UO-31 renal = tested on: UO-31 renal

## C=C1[C@@H](O)C[C@H]2C(C)(C)C[C@H](Cl)C[C@]2(C)[C@H]1C[C@H](O)[C@H]1CC(=O)NC1=O
786-0 renal
  GI50: 14.9 nM
  TGI: 136 nM
A498 renal
  GI50: 20.7 nM
  TGI: 72.3 nM
A549 NSCLC
  GI50: 11.7 nM
  TGI: 145 nM
ACHN renal
  GI50: 16.6 nM
  TGI: 176 nM
BT-549 breast
  GI50: 26.5 nM
  TGI: 155 nM
CAKI-1 renal
  GI50: 41.8 nM
  TGI: 1590 nM
CCRF-CEM leukemia
  GI50: < 10 nM
COLO 205 colon
  GI50: < 10 nM
  TGI: 56.4 nM
DU-145 prostate
  GI50: 16.6 nM
  TGI: 165 nM
EKVX NSCLC
  GI50: 15.7 nM
  TGI: 128 nM
HCC-2998 colon
  GI50: 17.3 nM
  TGI: 117 nM
HCT-116 colon
  GI50: < 10 nM
  TGI: 109 nM
HCT-15 colon
  GI50: 25.5 nM
  TGI: 596 nM
HL-60(TB) leukemia
  GI50: < 10.7 nM
  TGI: 54.7 nM
HOP-62 NSCLC
  GI50: 11.6 nM
  TGI: 96.1 nM
HOP-92 NSCLC
  GI50: < 11.5 nM
  TGI: 179 nM
HS 578T breast
  GI50: 19.2 nM
  TGI: 274 nM
HT29 colon
  GI50: < 10.5 nM
  TGI: 119 nM
IGROV1 ovarian
  GI50: 11.4 nM
  TGI: 85.3 nM
K-562 leukemia
  GI50: 12.1 nM
KM12 colon
  GI50: < 12 nM
  TGI: 441 nM
LOX IMVI melanoma
  GI50: < 44.5 nM
  TGI: 442 nM
M14 melanoma
  GI50: < 11.9 nM
  TGI: 49.2 nM
MALME-3M melanoma
  GI50: < 10 nM
  TGI: 63.2 nM
MCF7 breast
  GI50: < 10 nM
  TGI: 106 nM
MDA-MB-231 breast
  GI50: 15 nM
  TGI: 190 nM
MDA-MB-435
  GI50: 16 nM
  TGI: 312 nM
MOLT-4 leukemia
  GI50: < 10 nM
NCI-H226 lung
  GI50: 21.8 nM
  TGI: 190 nM
NCI-H23 lung
  GI50: 19.3 nM
  TGI: 150 nM
NCI-H460 lung
  GI50: < 10 nM
  TGI: 290 nM
NCI-H522 lung
  GI50: < 10 nM
  TGI: 29.3 nM
NCI/ADR-RES ovarian
  GI50: < 44.7 nM
  TGI: 508 nM
OVCAR-3 ovarian
  GI50: 19.1 nM
  TGI: 289 nM
OVCAR-4 ovarian
  GI50: 17.4 nM
  TGI: 391 nM
OVCAR-5 ovarian
  GI50: 26.9 nM
  TGI: 395 nM
OVCAR-8 ovarian
  GI50: 15.5 nM
  TGI: 163 nM
PC-3 prostate
  GI50: 17.4 nM
  TGI: 264 nM
RPMI-8226 leukemia
  GI50: 20.7 nM
  TGI: 80.5 nM
RXF 393 renal
  GI50: 13.2 nM
  TGI: 72.2 nM
SF-268 CNS
  GI50: 17.9 nM
  TGI: 526 nM
SF-295 CNS
  GI50: < 12.3 nM
  TGI: 74.8 nM
SF-539 CNS
  GI50: < 10.9 nM
  TGI: 59.7 nM
SK-MEL-2 melanoma
  GI50: < 11.1 nM
  TGI: 46.9 nM
SK-MEL-28 melanoma
  GI50: 16.1 nM
  TGI: 127 nM
SK-MEL-5 melanoma
  GI50: < 13.4 nM
  TGI: 36.3 nM
SK-OV-3 ovarian
  GI50: 13.5 nM
  TGI: 157 nM
SN12C renal
  GI50: < 10 nM
  TGI: 108 nM
SNB-19 CNS
  GI50: < 10 nM
  TGI: 241 nM
SNB-75 CNS
  GI50: 28.7 nM
  TGI: 706 nM
SR leukemia
  GI50: 14.2 nM
SW-620 colon
  GI50: 11.4 nM
  TGI: 4.94 µM
T-47D breast
  GI50: < 11.3 nM
  TGI: 81.9 nM
TK-10 renal
  GI50: 25.3 nM
  TGI: 151 nM
U251 CNS
  GI50: < 10 nM
  TGI: 108 nM
UACC-257 melanoma
  GI50: 19.3 nM
  TGI: 122 nM
UACC-62 melanoma
  GI50: 19.4 nM
  TGI: 150 nM
UO-31 renal
  GI50: 18.5 nM
  TGI: 212 nM

From PubChem BioAssay (NCI)
